Data published in patent US20090105562A1, “SYSTEM AND METHODS FOR SCREENING OR ANALYZING TARGETS” (TAIPEI VETERANS GENERAL HOSPITAL, priority 2007, published 2009).

Experiments:
Assay type in all cases: cell-based, rat
[1] = test system: NSCs isolated from the hippocampus of adult rats; test: MTT cell viability/survival of NSCs treated with IM; conditions: 3 μM IM; Day 3, Day 5 and Day 7 cultures; p<0.05
Protocol: Adult Sprague-Dawley (SD) rats (8 weeks old, 250 g) were anesthetized with intraperitoneal phenobarbital (Sigma, USA), and the location of their brains was mapped. Then, the brain was surgically separated from the hippocampus region. In brief, tissues from the hippocampus of adult rats were dissociated and incubated in Hank's balanced salt solution (HBSS) containing collagenase (78 units/ml) and hyaluronidase (38 units/ml) for 10 minutes at 37° C. The tissues were then mechanically dissected and placed in a trypsin solution (1.33 mg/ml) at 37° C. for another 10 minutes. Dissociated cells were then centrifuged at 150 GG for 5 minutes. […] Viable cells were counted by trypan blue exclusion and plated as 5000 cells/200 μL per well in 96-well plates (Corning Inc, Acton, Mass., USA) with no substrate pretreatment. […] The amount of MTT fromazon product was determined using a microplate reader and the absorbance was measured at 560 nm (SpectraMax 250, Molecular Devices, Sunnyvale, Calif., USA). […] Each individual sample was analyzed in triplicate.

NSCs = test: Real-time RT-PCR mRNA expression in IM-treated NSCs
Protocol: For real-time RT-PCR, the total RNA was extracted using the RNAeasy kit (Qiagen, Valencia, Calif., USA). Briefly, total RNA (1 μg) of each sample was reverse transcribed in 20 μL using 0.5 μg of oligo dT and 200 U Superscript II RT (Invitrogen, Carlsbad, Calif., USA). The amplification was carried out in a total volume of 20 μl containing 0.5 μM of each primer, 4 mM MgCl2, 2 μl LightCycler™ FastStart DNA Master SYBR green I (Roche Molecular Systems, Alameda, Calif., USA) and 2 μl of 1:10 diluted cDNA. The quantification in the unknown samples was performed with LightCycler Relative Quantification Software version 3.3 (Roche Molecular Systems, Alameda, Calif., USA). In each experiment, the GAPDH housekeeping gene was amplified as a reference standard. GAPDH primers were designed: GAPDH(f): […] (nt 414-434, GenBank accession no. BC059110.1), GAPDH(r): ATGACCTTGCCCACA GCCTT (nt 713-733). Other target gene primers were as follows: BDNF(f) 5′-CCAAGGCAGGTTCAA GAG-3′. BDNF(r): 5′-CCAGCAGAAAGAGAAGAGG-3′ (nt 146-331, GenBank accession no.NM_170735). Bcl-2(f): […] (nt 527-550, GenBank accession no. NM_016993.1), Bcl-2(r): GTTGTCCA CCAGGGGTGACAT (nt 721-742). Bax(f): GTGGT TGCCCTCTTCTACTTTGC (nt 328-351, GenBank accession no. NM_017059.1), Bax(r): GAGGACT CCAGCCACAAAGATG (nt 522-544). MAP2(f): GTTTACATTGTTCAGGAC CTCATGG (nt 316-341); MAP2(r): TCGGTAAGAAAGCC AGTGTGGT (nt 551-573. GenBank accession no. NM_U12008.1). Reactions were prepared in duplicate and heated to 95° C. for 10 minutes followed by 40 cycles of denaturation at 95° C. for 10 seconds, annealing at 55° C. for 5 seconds, and extension at 72° C. for 20 seconds. All PCR reactions were performed in duplicate. Standard curves (cycle threshold values versus template concentration) were prepared for each target gene and for the endogenous reference (GAPDH) in each sample. To confirm the specificity of the PCR reaction, PCR products were electrophoresed on a 1.2% agarose gel.

LPS-treated NSCs = test: TUNEL assay of LPS-induced apoptosis in NSCs; conditions: IM treatment vs without IM
Protocol: An avidin-biotin complex method was used for the immunohistochemical staining in the differentiated NSCs. Following washes with the 3% hydrogen peroxide, sodium azide and antigens were retrieved using a microwave. Each slide was then treated with antibodies for Bcl-2 (Upstate Biotechnology, Waltham, Mass., USA), Nestin (Chemicon, Temecula, Calif., USA), 4′, 6-diamidino-2-phenylindole (DAPI; Chemicon, Temecula, Calif., USA) and MAP2 (Chemicon, Temecula, Calif., USA). Immunoreactive signals were detected with a mixture of biotinylated rabbit anti-mouse IgG and Fluoresave (Calbiochem, La Jolla, Calif., USA) under confocal microscopy (Olympus, FV300). Each individual sample was analyzed in triplicate. Furthermore, apoptotic cells were identified by the TUNEL method (In Situ Cell Death Detection Kit, POD, Roche Boehringer Mannheim Corp., IN, USA) as described in Chiou et al., J. Immunol. 167, 4098-4103, 2001. Briefly, the cells with cover slips were washed with 1× phosphate buffered saline (PBS), fixed with 4% of paraformaldehyde for 10 minutes, permeabilized with 0.1% of triton X-100 for 5 mins, and incubated with the TUNEL reagent provided for 1 hour. […] The percentage of TUNEL-positive cells was measured by the average of 6 different areas as compared to the total cell number in the same section slide (under a×200 power field of a light microscope).

[2] = Day 3, Day 5 and Day 7 of IM-treated NSCs
[3] = Day 5 and Day 7 IM-treated vs non IM-treated NSCs, p<0.05

CN(C)CCCN1c2ccccc2CCc2ccccc21 [IM, imipramine] was tested. Which “cell survival (MTT assay)” value [1] did it give?
Its value is “significantly increased”.

What about the “level of Bcl-2 mRNA” value (NSCs; 1, 3 and 5 μM IM, Day 7, vs Day 7 non-IM-treated NSCs) of the same compound?
Its value is “significantly increased”.

And the “expression of Bad” value (NSCs; [2])?
Its value is “not activated”.

What about the “expression of Bax” value (NSCs; [2]) of the same compound?
Its value is “not activated”.

And the “mRNA level of Bcl-2” value (NSCs; [3])?
The value was “significantly increased”.

What about the “mRNA level of MAP2” value (NSCs; [3]) of the same compound?
Its value is “significantly increased”.

What about the “LPS-induced apoptosis in NSCs (TUNEL assay)” value (LPS-treated NSCs) of the same compound?
Its value is “protected against LPS-induced apoptosis”.
